Like-named read-outs stand apart in the source and are kept apart here.
How the values were obtained:
[1] = oxidation of biological thiols, physiological pH; marked with footnote a; cited from earlier work
[2] = target: T1, calf intestinal phosphatase (CIP) (Bos taurus, UniProt P19111); assay: Inhibition of calf intestinal phosphatase, 4-nitrophenyl phosphate substrate; assay type: biochemical; conditions: pH 7.5, substrate 1.0 mM
T1 construct: purchased Promega (Fitchburg, WI)
Method: (§1) 2-CPBA was tested as an inhibitor of pig liver esterase (PLE). This test used 4-nitrophenyl acetate (PNPA) as a substrate. In addition, 2-CPBA was tested as an inhibitor of calf intestinal phosphatase (CIP). This test used 4-nitrophenyl phosphate. Substrates and PLE (15 units/mg) were obtained from Sigma-Aldrich (St. Louis, MO) as dry powders. CIP was obtained from Promega (Fitchburg, WI) as a solution (1 unit/μL). The hydrolysis of the two chromogenic substrates was monitored with a Tecan M1000 plate reader by measuring the absorbance of the 4-nitrophenol product at a wavelength of 405 nm. Assays were performed in a buffer of 20 mM Tris-HCl buffer, pH 7.5, in a clear, flat bottomed 96-well plate in 200-μL volumes. Solutions for CIP assays contained enzyme (0.003 units/μL) and substrate (1.0 mM). Solutions for PLE assays contained enzyme (0.01 units/mL) and substrate (1.0 mM). Both enzymes were assayed for inhibition by adding 2-CPBA (to a concentration of 0.78-100 mM) from a 250 mM stock solution that had its pH adjusted to that of the assay buffer. Initial velocities were measured by calculating ΔA405 nm over time. Velocities were fitted to the 4-parameter logistic equation with Prism software from GraphPad (San Diego, CA). No enzyme and uninhibited velocities were used to constrain the top and bottom parameters. Values of Ki were 80 mM for CIP and 10 mM for PLE.

[3] = Affinity for saccharides, 1H-NMR titration; assay type: binding
Excerpt: (§2) PBA and 2-HMPBA are employed often for their ability to form esters with saccharides. As the affinity of boronic acids for saccharides is generally greatest near their pKa value, the low pKa1 of 2-CPBA portends a low affinity. The results of ^1H-NMR titration experiments with D-fructose, D-glucose, and N-acetylneuraminic acid (Neu5Ac) are consistent with this expectation (Table 3).

pig liver esterase (PLE) = target: T2, pig liver esterase (PLE) (Sus scrofa, UniProt Q29550); assay: Inhibition of pig liver esterase, 4-nitrophenyl acetate substrate; assay type: biochemical; conditions: pH 7.5, substrate 1.0 mM
T2 sequence (Q29550 19-566): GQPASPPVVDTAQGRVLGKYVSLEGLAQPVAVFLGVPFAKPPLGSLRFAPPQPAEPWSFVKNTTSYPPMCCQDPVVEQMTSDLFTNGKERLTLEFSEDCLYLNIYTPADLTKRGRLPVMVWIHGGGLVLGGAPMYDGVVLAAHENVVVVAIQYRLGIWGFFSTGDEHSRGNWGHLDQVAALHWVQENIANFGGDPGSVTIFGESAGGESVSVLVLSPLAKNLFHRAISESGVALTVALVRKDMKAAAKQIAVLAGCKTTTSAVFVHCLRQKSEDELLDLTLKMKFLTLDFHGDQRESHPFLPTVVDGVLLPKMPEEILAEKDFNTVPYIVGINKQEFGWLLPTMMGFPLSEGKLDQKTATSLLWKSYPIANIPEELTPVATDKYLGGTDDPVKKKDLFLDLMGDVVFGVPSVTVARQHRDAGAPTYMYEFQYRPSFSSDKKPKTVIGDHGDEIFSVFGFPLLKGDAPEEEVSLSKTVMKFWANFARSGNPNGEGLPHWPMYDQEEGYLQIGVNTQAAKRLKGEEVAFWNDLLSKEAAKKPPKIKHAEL
Method: as §1

[4] = Affinity for saccharides, overall comparison; assay type: binding
Excerpt: as §2

ribonuclease A (RNase A) = target: T3, ribonuclease A (RNase A) (Bos taurus, UniProt P61823); assay: Inhibition of catalysis by ribonuclease A; assay type: biochemical; conditions: pH 6.0, substrate 6-FAM-(dA)rU(dA)2-6-TAMRA
T3 sequence (P61823 27-150): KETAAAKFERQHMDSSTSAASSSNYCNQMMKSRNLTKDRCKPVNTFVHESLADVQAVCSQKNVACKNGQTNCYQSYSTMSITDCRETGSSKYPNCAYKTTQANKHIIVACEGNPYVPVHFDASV
Method: The catalytic activity of ribonuclease A (RNase A) was assayed using 6-FAM-(dA)rU(dA)2-6-TAMRA as a substrate (Kelemen, B. R.; et al. Nucleic Acids Res. 1999, 27, 3696-3701). Assays were performed in 50 mM MES-NaOH buffer, pH 6.0, containing NaCl (100 mM) and RNase A (1 pM) in 200-μL solutions in a black, flat-bottomed 96-well plate and with a Tecan M1000 plate reader. An aqueous solution of 2-CPBA was prepared by dilution from a 500 mM stock that had its pH adjusted to that of the assay buffer. Initial velocities were measured from <5% turnover. Velocities were fitted to the 4-parameter logistic equation using Prism software from GraphPad. Uninhibited velocities were used to constrain the top parameter.

[5] = Oxidation of boronic acids by hydrogen peroxide, continuous UV-absorbance assay; assay type: physicochemical; conditions: for kmonoanion (rel) / kmonoanion: experimental; for kmonoanion (rel): relative to PBA; for kmonoanion: second-order rate constant for oxidation of monoanionic tetrahedral state; for kobs: second-order rate constant of oxidation by hydrogen peroxide, physiological pH
Excerpt: Hydrogen peroxide is known to be the major reactive oxygen species in humans. The oxidation of phenylboronic acids by aqueous hydrogen peroxide yields a phenol and boric acid. […] The oxidation rates were first-order with respect to hydrogen peroxide and each boronic acid. The ensuing second-order rate constants varied with pH and were half-maximal for PBA and 2-HMPBA when pH=pKa. Oxidation rates increase in a pH-dependent manner after and before a pH-independent regime (FIG. 2). This observation is consistent with the existence of two pH-independent rate constants, k1 and k2. Whereas the oxidation rates of PBA and 2-HMPBA at physiological pH are similar to those for biological thiols, the comparative stability of CPBA to oxidation is unexpected (Table 1).
For PBA, 2-HMPBA, and 2-CPBA, the transition from a neutral trigonal state to a monoanionic tetrahedral state occurs when the pH surpasses the pKa (FIG. 3). […] The oxaborolone is differentiated by its existence as a monoanionic tetrahedral species above pH 1. The second-order rate constants for the oxidation for the monoanionic tetrahedral states of PBA, 2-HMPBA, 2-CPBA, and 2-CMPBA ((2-carboxymethyl)-phenylboronic acid) are listed in Table 2.

Transthyretin (TTR) = target: T4, Transthyretin (TTR) (Homo sapiens, UniProt P02766); assay: Inhibition of transthyretin fibril formation, light-scattering at 400 nm; assay type: biochemical; conditions: pH 4.4, 96-h incubation at 37° C.
T4 construct: made in house
Method: TTR was expressed and purified as previously reported (Smith, T. P., et al, J. Med. Chem., 2017, 60, 7820-7834). Inhibition of fibril formation was assayed as previously reported (Smith, et al.). Briefly, TTR (7.2 μM) was incubated with varying ratios of kinetic stabilizers (BOL or tafamidis) in 10 mM sodium phosphate buffer, pH 7.6, containing potassium chloride (100 mM) for 30 min at 37° C. Solutions were 2-fold diluted with 100 mM sodium acetate buffer, pH 4.4, containing potassium chloride (100 mM). Quadruplicate samples were plated in a clear 96-well plate. Fibril formation was assessed by measuring light-scattering at 400 nm immediately following acidification and after a 96-h incubation at 37° C. Data were analyzed with equation 1 below by comparing the change in light-scattering over the incubation with a control containing the protein and no inhibitor. The standard deviation of measurements was propagated through calculation in equation 1.

T1 sequence (P19111 20-506): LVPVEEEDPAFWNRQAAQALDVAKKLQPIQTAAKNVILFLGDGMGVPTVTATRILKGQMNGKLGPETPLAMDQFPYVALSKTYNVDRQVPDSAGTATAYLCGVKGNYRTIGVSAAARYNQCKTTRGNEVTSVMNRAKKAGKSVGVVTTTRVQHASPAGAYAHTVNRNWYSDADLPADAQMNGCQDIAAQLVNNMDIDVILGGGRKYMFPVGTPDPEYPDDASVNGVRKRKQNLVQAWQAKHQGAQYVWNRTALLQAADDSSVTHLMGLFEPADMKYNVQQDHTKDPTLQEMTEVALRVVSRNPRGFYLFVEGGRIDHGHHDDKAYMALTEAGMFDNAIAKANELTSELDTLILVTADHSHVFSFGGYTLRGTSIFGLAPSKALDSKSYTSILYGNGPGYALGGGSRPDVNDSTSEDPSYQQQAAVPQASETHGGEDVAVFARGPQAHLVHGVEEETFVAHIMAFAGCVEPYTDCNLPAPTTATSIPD

Compound | kobs [1] | D-fructose, Ka [3] | D-glucose, Ka [3] | Neu5Ac, Ka [3] | kmonoanion (rel) [5] | kmonoanion [5] | kobs [5] | also measured
N[C@@H](CCC(=O)N[C@@H](CS)C(=O)NCC(=O)O)C(=O)O [Glutathione] | 0.89 M⁻¹ s⁻¹ |  |  |  |  |  |  | 
O=C(O)c1ccccc1B(O)O [Compound 2-CPBA, 2-carboxyphenylboronic acid] |  | 23 ± 2 M⁻¹ | 1.7 ± 0.1 M⁻¹ | 6.0 ± 0.5 M⁻¹ | 0.0000035 | 0.00016 M⁻¹ s⁻¹ | 0.00015 M⁻¹ s⁻¹ | Ki [2]: 80 mM; Ki (pig liver esterase (PLE)): 10 mM; loss in affinity for saccharides versus 2-HMPBA ([4]; versus 2-HMPBA): about 13 fold; loss in affinity for saccharides versus PBA ([4]; versus PBA): about 4 fold; IC50 (ribonuclease A (RNase A)): 27 mM
OB(O)c1ccccc1 [PBA, phenylboronic acid] |  | 128 ± 20 M⁻¹ | 5 ± 1 M⁻¹ | 13 ± 1 M⁻¹ | 1 | 46 M⁻¹ s⁻¹ | 2.4 M⁻¹ s⁻¹ | 
CC(=O)N[C@@H](CS)C(=O)O [N-Acetylcysteine] | 0.16 M⁻¹ s⁻¹ |  |  |  |  |  |  | 
OCc1ccccc1B(O)O [Compound 2-HMPBA, (2-hydroxymethyl)phenylboronic acid] |  | 336 ± 43 M⁻¹ | 28 ± 4 M⁻¹ | 43 ± 5 M⁻¹ | 0.10 | 4.8 M⁻¹ s⁻¹ | 2.4 M⁻¹ s⁻¹ | 
O=C(O)c1ccc2nc(-c3cc(Cl)cc(Cl)c3)oc2c1 [tafamidis] |  |  |  |  |  |  |  | % Fibril formation (Transthyretin (TTR); TTR:Compound ratio 1:1): 29 ± 5%; % Fibril formation (Transthyretin (TTR); TTR:Compound ratio 1:2): 1 ± 5%
O=C(O)Cc1ccccc1B(O)O [Compound 2-CMPBA, (2-carboxymethyl)-phenylboronic acid] |  |  |  |  | 0.00088 | 0.041 M⁻¹ s⁻¹ | 0.041 M⁻¹ s⁻¹ | 
N[C@@H](CS)C(=O)O [Cysteine] | 2.9 M⁻¹ s⁻¹ |  |  |  |  |  |  | 

— patent US12065456B2, “Boron-containing pharmacophore” (MASSACHUSETTS INSTITUTE OF TECHNOLOGY, priority 2019, dated 2024)
